The experiment deals with Mycobacterium tuberculosis. The experiment in a line: Antitubercular activity against Mycobacterium tuberculosis H37Ra ATCC 25177 transformed with pSMT1 luciferase reporter plasmid reduction in bacterial multiplication incubated for 7 days by luminometric assay. Conditions: H37Ra ATCC 25177, 168 h. The experiment is classed as functional, organism-based.

The term MIC denotes the smallest concentration in the dilution series that meets the test's criterion for growth inhibition. A high value points to a need for much substance. Consider `CN(OC(=O)Nc1ccccc1)C(=O)CCCP(=O)(OCOC(=O)C(C)(C)C)OCOC(=O)C(C)(C)C`, for which the minimal inhibitory concentration (MIC) was greater than 64 µM.
Under `CC(=O)ON(C)C(=O)CCCP(=O)(OCOC(=O)C(C)(C)C)OCOC(=O)C(C)(C)C` stands greater than 64 µM.

Source of the values: ChEMBL document CHEMBL4316625, “Double prodrugs of a fosmidomycin surrogate as antimalarial and antitubercular agents” (Bioorg Med Chem Lett, 2019).
